Data taken from patent US7683062B2, “Crystalline form” (sanofi-aventis U.S. LLC, priority 2005, dated 2010).

Tests used:
[1] = Preliminary absorption studies with standard formulations; format: in vivo
[2] = molecular target: peripheral-type benzodiazepine receptors (Homo sapiens, UniProt P30536); details: cited from earlier work
[3] = test system: animal models of rheumatoid arthritis; experiment: Animal models of rheumatoid arthritis; format: in vivo; details: by modulating the immune response
[4] = Stability testing of polymorphic form (FTIR); format: physicochemical
Procedure: Fourier Transform IR spectra were obtained with a Nicolet 750 Magna brand system. The drug substance was ground with dry potassium bromide (KBr) at a concentration of 1 mg drug substance/200 mg KBr and compressed into a disk (200 mg) at 10,000 lbs for analysis.
Samples were analyzed at 2 months. The chamber humidity was controlled via a saturated sodium chloride aqueous solution.

Sequence of peripheral-type benzodiazepine receptors (P30536 whole entry): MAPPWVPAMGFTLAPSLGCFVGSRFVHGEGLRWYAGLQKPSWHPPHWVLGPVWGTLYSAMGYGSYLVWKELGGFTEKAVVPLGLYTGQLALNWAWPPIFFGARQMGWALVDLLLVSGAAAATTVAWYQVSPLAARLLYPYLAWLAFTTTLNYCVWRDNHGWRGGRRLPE

## CN(C)C(=O)Cc1nn(-c2ccccc2)c(=O)c2c1c1ccc(Cl)cc1n2C [Form I, 7-chloro-N,N,5-trimethyl-4-oxo-3-phenyl-3,5-dihydro-4H-pyridazino[4,5-b]indole-1-acetamide]
[1]
  absorption of the drug: limited absorption

## CN(C)C(=O)Cc1nn(-c2ccccc2)c(=O)c2c1c1ccc(Cl)cc1n2C [7-Chloro-N,N,5-trimethyl-4-oxo-3-phenyl-3,5-dihydro-4H-pyridazino[4,5-b]indole-1-acetamide]
[2]
  affinity for the peripheral-type benzodiazepine receptors: high affinity
[3]
  pharmacological activity in animal models of rheumatoid arthritis: has shown pharmacological activity

## CN(C)C(=O)Cc1nn(-c2ccccc2)c(=O)c2c1c1ccc(Cl)cc1n2C [Form II, 7-chloro-N,N,5-trimethyl-4-oxo-3-phenyl-3,5-dihydro-4H-pyridazino[4,5-b]indole-1-acetamide]
[4]; 50° C./75% relative humidity, open glass vials, two months, FIG. 9
  physical stability (conversion to Form I by FTIR): no changes indicative of conversion to Form I
[4]; normal storage conditions (room temperature)
  physical stability (conversion into other form): does not convert into any other form
